Literature values in patent US6641797B2, “Perfluoroalkyl-containing complexes with sugar radicals, process for their production and their use” (Schering Aktiengesellschaft, priority 2000, dated 2003).
Where “and” joins values, the source holds several entries; their conditions need not be identical. Equal entries are not always repeated.

Key:
[1] = tested on: necrotic portion of a tumor; conditions: in vivo; cited from earlier work
[2] = 39° C., 0.47 T; cited from earlier work
[3] = 39° C., 0.47 T; cited from earlier work; remark: listed apart in the source
[4] = in vivo; cited from earlier work
[5] = tested on: infarcted tissue; conditions: cited from earlier work

Row | Compound | accumulation in the necrotic portion of a tumor [1] | T^1-Relaxivity in Water [2] [L/mmol/s] | T^1-Relaxivity in Plasma [3] [L/mmol/s] | further results
1 | C[n+]1ccc(-c2c3nc(c(-c4cc[n+](C)cc4)c4ccc([n-]4)c(-c4cc[n+](C)cc4)c4nc(c(-c5cc[n+](C)cc5)c5ccc2[n-]5)C=C4)C=C3)cc1.[111In+3] [TMPyP, ^111In-5,10,15,20-tetrakis-(4-N-methyl-pyridinium)-porphyrin] | does not accumulate in the necrotic portion |  |  | 
2 | CNC[C@H](O)[C@@H](O)[C@H](O)[C@H](O)CO.CNC[C@H](O)[C@@H](O)[C@H](O)[C@H](O)CO.O=C([O-])CN(CCN(CC(=O)[O-])CC(=O)O)CCN(CC(=O)[O-])CC(=O)O.[Gd+3] [MAGNEVIST^(R), Gd-DTPA] |  | 3.8 | 4.8 | 
3 | O=S(=O)([O-])c1ccc(-c2c3nc(c(-c4ccc(S(=O)(=O)[O-])cc4)c4ccc([n-]4)c(-c4ccc(S(=O)(=O)[O-])cc4)c4nc(c(-c5ccc(S(=O)(=O)[O-])cc5)c5ccc2[n-]5)C=C4)C=C3)cc1.[Mn+3] [Mn-TPPS, manganese-5,10,15,20-tetrakis(4-sulfonatophenyl)-porphyrin] | selectively accumulates in the necrotic portion of a tumor |  |  | LD50 [4]: approximately 0.5 mmol/kg
4 | gadolinium-mesoporphyrin [Gd-MP] |  |  |  | ratio of the signal intensities in MRI, infarcted in comparison to healthy tissue ([5]; kidney and myocardium): 2.10 and 2.19; metal content of infarcted tissue versus non-infarcted, myocardium ([5]; myocardium (Example 1 of WO 95/31219)): nine times as large
5 | CNC(=O)CN(CCN(CCN(CC(=O)[O-])CC(=O)NC)CC(=O)[O-])CC(=O)[O-].[Gd+3] [OMNISCAN^(R)] |  | 3.8 | 4.4 | 
6 | CNC[C@H](O)[C@@H](O)[C@H](O)[C@H](O)CO.O=C([O-])CN1CCN(CC(=O)[O-])CCN(CC(=O)O)CCN(CC(=O)[O-])CC1.[Gd+3] [DOTAREM^(R)] |  | 3.5 | 4.3 | 
